Patent US7704525B2, “Lipid microparticles by cryogenic micronization” (Ares Trading S.A., priority 2000, dated 2010)

Assay: Partition coefficient octanol/water of Antide
Assay type: physicochemical
Details: 24 hours stirring at room temperature, RP-HPLC
Experimental: Partition coefficient: it was determined using octanol as organic phase and water as hydrophilic phase. The two phases were first saturated with each other for 24 hours at room temperature. Antide was then dissolved in the water phase at a concentration well below saturation. An equal volume of organic phase was subsequently added to the water phase and the mixture was kept under stirring for 24 hours at room temperature. Antide concentration in the two phases was determined by RP-HPLC and the partition coefficient was obtained from the ratio between the drug concentration in organic and water phase.
The resulting octanol/water coefficient was 8.56·10^−2

N—Ac-D-2-NaI, D-pCiPhe, D-3-Pal, Ser, NicLys, D-NicLys, Leu, Ilys, Pro, D-Ala, NH2 [Antide]
octanol/water coefficient: 8.56·10^−2
